Assay results taken from ChEMBL document CHEMBL5608181, “Discovery of indazole inhibitors for heat shock protein 90 as anti-cancer agents” (Eur J Med Chem, 2024).
Calls of active or inactive are those of the source. No cut-off for these calls is given here.

What was measured:
Homo sapiens = species on record: Homo sapiens; assay: Inhibition of N-terminal HSP90 (unknown origin) at 10 uM by AlphaLISA assay
BT-474 = assay: Antiproliferative activity against human BT-474 cells assessed as inhibition of cell viability at 10 uM measured after 72 hrs by CellTiter 96 Aqueous One Solution Cell Proliferation Assay relative to control; type: functional
JIMT-1 = assay: Antiproliferative activity against human JIMT-1 cells assessed as inhibition of cell viability at 10 uM measured after 72 hrs by CellTiter 96 Aqueous One Solution Cell Proliferation Assay relative to control; type: functional
HEK293 = assay: Cytotoxicity against HEK293 cells assessed as reduction in cell viability at 10 uM measured after 72 hrs by CellTiter 96 Aqueous One Solution Cell Proliferation Assay; type: toxicity, cell-based; settings: human, hek293, 72 h

SMILES	inhibition (Homo sapiens)	inhibition at 10 µM (BT-474)	inhibition at 10 µM (JIMT-1)	Activity (HEK293)
CO[C@@H]1[C@@H](OC(N)=O)[C@@H](O)[C@H](Oc2ccc3c(O)c(NC(=O)c4ccc(O)c(CC=C(C)C)c4)c(=O)oc3c2C)OC1(C)C	inactive			
CC(C)c1cc(-c2n[nH]c(=O)n2-c2ccc3c(ccn3C)c2)c(O)cc1O	Active			
COCCn1nc(NC(=O)c2ccc3c(c2OC)C=CC(C)(C)O3)c2ccccc21		> 50%	> 50%	Toxic
